Source: US11737977B2, “Cerasome delivery system for targeting activated CD44 molecule, preparation method and use thereof” (Beijing Inno Medicine Co., Ltd., priority 2017, dated 2023)

How the values were obtained:
[1] = target: T1, CD44 on the surface of endothelial cells at arterial vulnerable plaques (Mus musculus, UniProt P15379); assay: Binding force integration of FL-ligand/antibody on endothelial cells (flow cytometry MFI); set-up: species or system mice; settings: aminofluorescein-labeled ligand/antibody 10 mg/ml, 30 minutes, 37° C.
T1 construct: from tissue; host or cells: endothelial cells from arterial vulnerable plaques of atherosclerosis model mice
T1 sequence (P15379 23-778): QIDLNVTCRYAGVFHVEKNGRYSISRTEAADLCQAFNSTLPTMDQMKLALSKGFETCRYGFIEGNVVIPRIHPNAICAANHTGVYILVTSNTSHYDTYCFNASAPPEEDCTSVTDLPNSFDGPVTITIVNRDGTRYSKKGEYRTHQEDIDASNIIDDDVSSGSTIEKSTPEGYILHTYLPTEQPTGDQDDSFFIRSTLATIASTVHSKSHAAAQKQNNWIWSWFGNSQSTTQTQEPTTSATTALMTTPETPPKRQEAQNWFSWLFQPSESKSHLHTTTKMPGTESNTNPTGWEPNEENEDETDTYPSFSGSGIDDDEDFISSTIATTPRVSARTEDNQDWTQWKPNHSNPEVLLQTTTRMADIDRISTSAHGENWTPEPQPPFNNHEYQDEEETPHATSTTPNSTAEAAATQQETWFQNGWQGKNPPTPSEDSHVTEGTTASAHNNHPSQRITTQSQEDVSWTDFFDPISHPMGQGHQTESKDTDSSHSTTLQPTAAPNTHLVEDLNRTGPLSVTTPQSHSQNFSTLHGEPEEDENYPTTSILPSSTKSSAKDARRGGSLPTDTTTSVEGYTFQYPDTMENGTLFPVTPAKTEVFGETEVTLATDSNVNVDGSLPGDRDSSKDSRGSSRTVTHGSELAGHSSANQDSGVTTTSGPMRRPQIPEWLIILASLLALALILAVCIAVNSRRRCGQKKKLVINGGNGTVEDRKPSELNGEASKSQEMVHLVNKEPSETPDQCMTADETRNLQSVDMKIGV
Procedure: Endothelial cells at normal arterial vessel walls and endothelial cells at arterial vulnerable plaques of model mice were taken, and hyaluronic acid labeled with aminofluorescein at a concentration of 10 mg/ml (represented by “FL-HA”) was added, and the sample was cultured in Dulberic modified Eagle's medium (DMEM) (containing calf serum with a volume fraction of 10%, 100 U/ml penicillin, 100 U/ml streptomycin) at 37° C., in 5% CO2 incubator. After 30 minutes, the mean fluorescence intensity (MFI) was determined by flow cytometry (CytoFLEX, Beckman Coulter, U.S.A.), and the binding force integration of FL-HA on the surface of both cells was calculated (the binding force of endothelial cells of normal arterial vessel walls is set to 1).
Endothelial cells at normal arterial vessel walls and endothelial cells at arterial vulnerable plaques of model mice were taken, and the ligand/antibody labeled with aminofluorescein at a concentration of 10 mg/ml was added, the sample was cultured in Dulberic modified Eagle's medium (DMEM) (containing calf serum with a volume fraction of 10%, 100 U/ml penicillin, 100 U/ml streptomycin) at 37° C., in 5% CO2 incubator. After 30 minutes, the mean fluorescence intensity (MFI) was determined by flow cytometry (CytoFLEX, Beckman Coulter, U.S.A.), and the binding force integration of FL-ligand/antibody on the surface of both cells was calculated (the binding force of CD44 of endothelial cells of normal arterial vessel walls to ligand/antibody is set to 1).

[2] = target: T2, CD44 on the surface of macrophages inside arterial vulnerable plaques (Mus musculus, UniProt P15379); assay: Binding force integration of FL-ligand/antibody on macrophages (flow cytometry MFI); set-up: species or system mice; settings: aminofluorescein-labeled ligand/antibody 10 mg/ml, 30 minutes, 37° C.
T2 construct: from tissue; host or cells: macrophages from inside arterial vulnerable plaques of atherosclerosis model mice
T2 sequence (P15379 23-778): T1 sequence (P15379 23-778)
Procedure: Intraperitoneal macrophages and macrophages inside arterial vulnerable plaques of model mice were taken, and hyaluronic acid labeled with aminofluorescein at a concentration of 10 mg/ml (represented by “FL-HA”) was added, the sample was cultured in DMEM (containing calf serum with a volume fraction of 10%, 100 U/ml penicillin, 100 U/ml streptomycin) at 37° C., in 5% CO2 incubator.
Intraperitoneal macrophages and macrophages inside arterial vulnerable plaques of model mice were taken, and the ligand/antibody labeled with aminofluorescein at a concentration of 10 mg/ml was added, the sample was cultured in DMEM (containing calf serum with a volume fraction of 10%, 100 U/ml penicillin, 100 U/ml streptomycin) at 37° C., in 5% CO2 incubator.

[3] = system: arterial vulnerable plaques; assay: In vivo CT tracing of arterial vulnerable plaques, iodixanol; set-up: species or system mice; settings: iodixanol 0.66 mg/kg, tail vein, CT 72 hours after administration; FIG. 16
Procedure: (1) A commercially available iodixanol bulk drug was used, and the cerasome delivery system HA-CL1@I loaded with a CT tracer, the cerasome delivery system HA-CL1@I+S loaded with a tracer and a CD44 activator, and the non-targeting cerasome delivery system CL1@I loaded with a tracer (as a comparative example) were prepared by the method described in the above Example 2.
(2) A mouse model of atherosclerotic vulnerable plaque was constructed according to the method described in Example 6 above.
(3) The model mice were fed with a high-fat diet (same as in Example 6) for 16 weeks. 30 model mice were randomly divided into the blank group (6 mice), the iodixanol group (6 mice, given the commercially available iodixanol bulk drug, and the dosage of iodixanol was 0.66 mg/kg body weight), the CL1@I group (6 mice, given CL1@I, and the dosage of iodixanol was 0.66 mg/kg body weight), the HA-CL1@I group (6 mice, given HA-CL1@I, and the dosage of iodixanol was 0.66 mg/kg body weight), and HA-CL1@I+S group (6 mice, given HA-CL1@I+S, the dosage of iodixanol was 0.66 mg/kg body weight, and the dosage of CD44 activator-LPS was about 0.023 mg/kg body weight). […]

[4] = system: arterial vulnerable plaques; assay: In vivo therapeutic effect on arterial vulnerable plaques (carotid MRI, percentage of plaque progression); set-up: species or system ApoE−/− mice; settings: 5 mg rosuvastatin per kg, once every other day, 5 treatments; FIG. 14
[5] = oral, clinical practice; cited from earlier work

## hyaluronic acid [HA, reference compound]
[1]
  binding force integration, endothelial cells at vulnerable plaques versus endothelial cells of normal arterial vessel walls (set to 1): approximately 24 times
[2]
  binding force integration, macrophages inside vulnerable plaques versus macrophages outside the plaque (set to 1): approximately 40 times

## collagen
[1]
  binding force integration, endothelial cells at vulnerable plaques versus endothelial cells of normal arterial vessel walls (set to 1): 21 times
[2]
  binding force integration, macrophages inside vulnerable plaques versus macrophages outside the plaque (set to 1): 38 times

## CC(=O)N(CC(O)CN(C(C)=O)c1c(I)c(C(=O)NCC(O)CO)c(I)c(C(=O)NCC(O)CO)c1I)c1c(I)c(C(=O)NCC(O)CO)c(I)c(C(=O)NCC(O)CO)c1I (stereo not shown) [iodixanol]
[3]
  tracing effect on arterial vulnerable plaques (CT): does not show any tracing effect

## CC(C)c1nc(N(C)S(C)(=O)=O)nc(-c2ccc(F)cc2)c1/C=C/[C@@H](O)C[C@@H](O)CC(=O)O [rosuvastatin]
[4]
  therapeutic effect on arterial vulnerable plaques (percentage of plaque progression): shows a certain therapeutic effect, but it could not prevent the continued growth of vulnerable plaques
[5]
  bioavailability when administered orally: about 20%

## fibronectin
[1]
  binding force integration, endothelial cells at vulnerable plaques versus endothelial cells of normal arterial vessel walls (set to 1): 18 times
[2]
  binding force integration, macrophages inside vulnerable plaques versus macrophages outside the plaque (set to 1): 35 times

## osteopontin: natural ligand for CD44
[1]
  binding force integration, endothelial cells at vulnerable plaques versus endothelial cells of normal arterial vessel walls (set to 1): 17 times
[2]
  binding force integration, macrophages inside vulnerable plaques versus macrophages outside the plaque (set to 1): 33 times

## laminin
[1]
  binding force integration, endothelial cells at vulnerable plaques versus endothelial cells of normal arterial vessel walls (set to 1): 16 times
[2]
  binding force integration, macrophages inside vulnerable plaques versus macrophages outside the plaque (set to 1): 37 times
